Consider 8 molecules from patent US20240174723A1, “STAPLED ANTIMICROBIAL PEPTIDES (STAMPS) AND USES THEREOF” (Lytica Therapeutics, Inc., priority 2021, published 2024).

Converted amounts (≈) assume the structure as drawn. Positions of bridges follow the written chain, without caps; N, C: chain ends. Non-standard residues stand in square brackets, D forms with d. Residues, ends and D or L forms follow the SMILES beside them. S5 = C=CCCC[C@](C)(N)C(=O)O; Dap = NC[C@H](N)C(=O)O Where only a bound is given, the exact number is not on record here.

Series [1] has as its system E. coli. Type of series: cell-based, Escherichia coli. On the procedure:
(§1) Antimicrobial Activity Assay: The following microbroth dilution protocol was adapted from CLSI to determine the minimum inhibitory concentration (MIC) of StAMPs. Briefly, Mueller-Hinton broth (MHB) or cation-adjusted Mueller-Hinton broth (MHB II) was prepared and autoclaved. Then, a colony of bacterial cells was picked and grown overnight in broth at 37° C. and then diluted and allowed to grow again for 3-4 hours. Serial dilutions of peptide stocks in water (10 μl) were prepared using clear round-bottom polypropylene 96-well plates. Then 90 μl of bacteria in broth was added to give a final inoculum of 5×10^5 CFU/ml. The plates were then covered with porous tape to reduce evaporation and incubated for 20-24 hours at 37° C. The MIC was the minimum peptide concentration at which no visible bacterial growth was observed.
(§2) Renal toxicity was measured after 90 minutes of incubation, while liver toxicity was measured after 48 hours of incubation with StAMPs. N/A=not tested. The following apply to all peptides (i.e., StAMPs) listed in Tables A-C: Crosslinks (X^1—X^2 and X^3—X^4): (alk); N-terminus: —NH2; C-terminus: amidated with —NH2; counterion: Cl^−. The following apply to all peptides (i.e., StAMPs) listed in Table D: Crosslinks (X^1—X^2 and X^3—X^4): (alk); N-terminus: —NH2; C-terminus: as shown in table; counterion: Cl^−.

The subject of series [2] is A. baumannii. Type of series: cell-based, Acinetobacter baumannii. Here is the method: as §1, §2
The subject of series [3] is P. aeruginosa. The class given is cell-based, Pseudomonas aeruginosa. Here is the method: as §1, §2
StAMP Micelle Formulation: DSPE-MPEG(2000) was suspended in buffered saline at 50-100 mg/mL overnight. StAMP stock solutions at 5-20 mg/mL in buffered saline were prepared and equal volumes of micelle and StAMP stock solution were mixed at the desired StAMP:Lipid ratio. Suspensions were allowed to sit for 5-10 minutes at room temperature before being used in in vitro and in vivo assays. […]

In series [4] the test system is K. pneumoniae. The class given is cell-based, Klebsiella pneumoniae. Here is the method:
as §1, §2

Series [5] has as its system S. aureus. The class given is cell-based, Staphylococcus aureus. On the procedure:
as §1, §2

Series [6] is described as follows: in vitro. The class given is cell-based. As to conditions: human, Inhibitory Concentration at 50% Cytotoxicity (IC50) Human Liver Cells (HepG2). Here is the method: Cell culture: RPTEC were maintained in MEM media supplemented with growth factors. HEPG2 cell line was maintained in Eagle's Minimum Essential Medium (EMEM) supplemented with fetal bovine serum to a final concentration of 10%.
48 hours cytotoxicity assay: Cells were plated in a 96-well format, and after 4 hour incubation to allow attachment, serial dilutions of StAMPs from a 5 mg/mL water stock, or vehicle, were then added to the cells in a final volume of 100 μl. After incubating at 37° C. for 48 hours, 100 μl of CellTiter-Glo® reagent was added to the cells, and the plates were incubated 10 minutes at room temperature. Luminescence was then measured on a microplate reader.
as §2

In the case of `CC(C)[C@@H]1NC(=O)[C@@](C)(NC(=O)[C@H](C)NC(=O)[C@H](CCCCN)NC(=O)CNC(=O)[C@H](Cc2ccccc2)NC(=O)[C@H](CCCCN)NC(=O)[C@H](CCCCN)NC(=O)[C@H](CCCCN)NC(=O)[C@H](CCCCN)NC(=O)[C@H](CCN)NC(=O)[C@]2(C)CCCC=CCCC[C@](C)(NC(=O)CN)C(=O)NCC(=O)N[C@@H](CCCCN)C(=O)N[C@@H](Cc3ccccc3)C(=O)N2)CCCC=CCCC[C@@](C)(C(=O)N[C@@H](C)C(=O)N[C@@H](CCCCN)C(=O)N[C@@H](CCCCN)C(N)=O)NC(=O)[C@H](CCC(=O)O)NC(=O)CNC1=O` (single isomer, unassigned) [compound 41], the “Minimum Inhibitory Concentration (MIC) E. coli” value in series [1] is 2 µg/mL. Besides, the “Minimum Inhibitory Concentration (MIC) A. baumannii” value in series [2] turned out to be 2 µg/mL. Further, the “Minimum Inhibitory Concentration (MIC) P. aeruginosa” value in series [3] was determined as 4 µg/mL. In series [4], the “Minimum Inhibitory Concentration (MIC) K. pneumoniae” value came to 4 µg/mL. Moreover, in series [5], the “Minimum Inhibitory Concentration (MIC) S. aureus” value was greater than 64 µg/mL. Also, the IC50 – broadly, the concentration that gives 50% inhibition – at 48 hours in series [6] was determined as 115 µg/mL (≈ 45.3 µM).
For `CC(C)[C@@H]1NC(=O)[C@H](C(C)C)NC(=O)[C@@](C)(NC(=O)[C@H](C)NC(=O)[C@H](CCCCN)NC(=O)CNC(=O)[C@@H](Cc2ccccc2)NC(=O)[C@H](CCCCN)NC(=O)[C@H](CCCCN)NC(=O)[C@H](CCCCN)NC(=O)[C@H](CCCCN)NC(=O)[C@H](Cc2c[nH]cn2)NC(=O)[C@]2(C)CCCC=CCCC[C@](C)(NC(=O)CN)C(=O)NCC(=O)N[C@@H](CCCCN)C(=O)N[C@H](Cc3ccccc3)C(=O)N2)CCCC=CCCC[C@@](C)(C(=O)N[C@@H](C)C(=O)N[C@@H](CCCCN)C(=O)N[C@@H](CCCCN)C(N)=O)NC(=O)[C@H](CCC(=O)O)NC1=O` [compound 28] (H-G[S5]GK[dF][S5]HKKKK[dF]GKA[S5]VVE[S5]AKK-NH2; staple 2-6, 16-20), the “Minimum Inhibitory Concentration (MIC) E. coli” value in series [1] was found to be 64 µg/mL. For the same molecule, the “Minimum Inhibitory Concentration (MIC) A. baumannii” value in series [2] was 16 µg/mL. Further, the “Minimum Inhibitory Concentration (MIC) P. aeruginosa” value in series [3] stood at 64 µg/mL. In addition, the “Minimum Inhibitory Concentration (MIC) K. pneumoniae” value in series [4] was greater than 64 µg/mL. Also, the “Minimum Inhibitory Concentration (MIC) S. aureus” value in series [5] is greater than 64 µg/mL. This molecule showed an IC50 at 48 hours in series [6] of 201 µg/mL (≈ 76.9 µM).
Turning to `CC(C)[C@@H]1NC(=O)[C@@](C)(NC(=O)[C@H](C)NC(=O)[C@H](CCCCN)NC(=O)CNC(=O)[C@H](Cc2ccccc2)NC(=O)[C@H](CCCCN)NC(=O)[C@H](CCCCN)NC(=O)[C@H](CCCCN)NC(=O)[C@H](CN)NC(=O)[C@H](CCCCN)NC(=O)[C@]2(C)CCCC=CCCC[C@](C)(NC(=O)CN)C(=O)NCC(=O)N[C@@H](CCCCN)C(=O)N[C@@H](Cc3ccccc3)C(=O)N2)CCCC=CCCC[C@@](C)(C(=O)N[C@@H](C)C(=O)N[C@@H](CCCCN)C(=O)N[C@@H](CCCCN)C(N)=O)NC(=O)[C@H](CCC(=O)O)NC(=O)CNC1=O` [compound 47] (H-G[S5]GKF[S5]K[Dap]KKKFGKA[S5]VGE[S5]AKK-NH2; staple 2-6, 16-20), the “Minimum Inhibitory Concentration (MIC) E. coli” value in series [1] was 2 µg/mL. In addition, the “Minimum Inhibitory Concentration (MIC) A. baumannii” value in series [2] stood at 2 µg/mL. Besides, the “Minimum Inhibitory Concentration (MIC) P. aeruginosa” value in series [3] amounted to 4 µg/mL. Moreover, the “Minimum Inhibitory Concentration (MIC) K. pneumoniae” value in series [4] is 6 µg/mL. In series [5], the “Minimum Inhibitory Concentration (MIC) S. aureus” value was greater than 64 µg/mL.
As to `CC(C)[C@@H]1NC(=O)[C@@](C)(NC(=O)[C@H](C)NC(=O)[C@H](CCCCN)NC(=O)CNC(=O)[C@H](Cc2ccccc2)NC(=O)[C@H](CCCCN)NC(=O)[C@H](CN)NC(=O)[C@H](CCCCN)NC(=O)[C@H](CCCCN)NC(=O)[C@H](CCCCN)NC(=O)[C@]2(C)CCCC=CCCC[C@](C)(NC(=O)CN)C(=O)NCC(=O)N[C@@H](CCCCN)C(=O)N[C@@H](Cc3ccccc3)C(=O)N2)CCCC=CCCC[C@@](C)(C(=O)N[C@@H](C)C(=O)N[C@@H](CCCCN)C(=O)N[C@@H](CCCCN)C(N)=O)NC(=O)[C@H](CCC(=O)O)NC(=O)CNC1=O` [compound 48] (H-G[S5]GKF[S5]KKK[Dap]KFGKA[S5]VGE[S5]AKK-NH2; staple 2-6, 16-20), the “Minimum Inhibitory Concentration (MIC) E. coli” value in series [1] is 4 µg/mL. For the same molecule, in series [2], the “Minimum Inhibitory Concentration (MIC) A. baumannii” value was 2 µg/mL. The “Minimum Inhibitory Concentration (MIC) P. aeruginosa” value in series [3] was determined as 8 µg/mL. In addition, in series [4], the “Minimum Inhibitory Concentration (MIC) K. pneumoniae” value is 16 µg/mL. For the same molecule, the “Minimum Inhibitory Concentration (MIC) S. aureus” value in series [5] was greater than 64 µg/mL.
Taken in the same sequence, the figures for `CC(C)[C@@H]1NC(=O)[C@@](C)(NC(=O)[C@H](C)NC(=O)[C@H](CCCCN)NC(=O)CNC(=O)[C@H](Cc2ccccc2)NC(=O)[C@H](CN)NC(=O)[C@H](CCCCN)NC(=O)[C@H](CCCCN)NC(=O)[C@H](CCCCN)NC(=O)[C@H](CCCCN)NC(=O)[C@]2(C)CCCC=CCCC[C@](C)(NC(=O)CN)C(=O)NCC(=O)N[C@@H](CCCCN)C(=O)N[C@@H](Cc3ccccc3)C(=O)N2)CCCC=CCCC[C@@](C)(C(=O)N[C@@H](C)C(=O)N[C@@H](CCCCN)C(=O)N[C@@H](CCCCN)C(N)=O)NC(=O)[C@H](CCC(=O)O)NC(=O)CNC1=O` [compound 49] (H-G[S5]GKF[S5]KKKK[Dap]FGKA[S5]VGE[S5]AKK-NH2; staple 2-6, 16-20) were 4 µg/mL, 2 µg/mL, 8 µg/mL, 8 µg/mL and greater than 64 µg/mL.
Turning to `CC(C)[C@@H]1NC(=O)[C@@](C)(NC(=O)[C@H](C)NC(=O)[C@H](CN)NC(=O)CNC(=O)[C@H](Cc2ccccc2)NC(=O)[C@H](CCCCN)NC(=O)[C@H](CCCCN)NC(=O)[C@H](CCCCN)NC(=O)[C@H](CCCCN)NC(=O)[C@H](CCCCN)NC(=O)[C@]2(C)CCCC=CCCC[C@](C)(NC(=O)CN)C(=O)NCC(=O)N[C@@H](CCCCN)C(=O)N[C@@H](Cc3ccccc3)C(=O)N2)CCCC=CCCC[C@@](C)(C(=O)N[C@@H](C)C(=O)N[C@@H](CCCCN)C(=O)N[C@@H](CCCCN)C(N)=O)NC(=O)[C@H](CCC(=O)O)NC(=O)CNC1=O` [compound 50] (H-G[S5]GKF[S5]KKKKKFG[Dap]A[S5]VGE[S5]AKK-NH2; staple 2-6, 16-20), the “Minimum Inhibitory Concentration (MIC) E. coli” value in series [1] came to 4 µg/mL. The “Minimum Inhibitory Concentration (MIC) A. baumannii” value in series [2] is 2 µg/mL. For the same molecule, in series [3], the “Minimum Inhibitory Concentration (MIC) P. aeruginosa” value is 8 µg/mL. The “Minimum Inhibitory Concentration (MIC) K. pneumoniae” value in series [4] amounted to 8 µg/mL. The “Minimum Inhibitory Concentration (MIC) S. aureus” value in series [5] is greater than 64 µg/mL.
Regarding `CC(C)[C@@H]1NC(=O)[C@@](C)(NC(=O)[C@H](C)NC(=O)[C@H](CCCCN)NC(=O)CNC(=O)[C@H](Cc2ccccc2)NC(=O)[C@H](CCCCN)NC(=O)[C@H](CCCCN)NC(=O)[C@H](CCCCN)NC(=O)[C@H](CCCCN)NC(=O)[C@H](CCCCN)NC(=O)[C@]2(C)CCCC=CCCC[C@](C)(NC(=O)CN)C(=O)NCC(=O)N[C@@H](CCCCN)C(=O)N[C@@H](Cc3ccccc3)C(=O)N2)CCCC=CCCC[C@@](C)(C(=O)N[C@@H](C)C(=O)N[C@@H](CN)C(=O)N[C@@H](CCCCN)C(N)=O)NC(=O)[C@H](CCC(=O)O)NC(=O)CNC1=O` [compound 51] (H-G[S5]GKF[S5]KKKKKFGKA[S5]VGE[S5]A[Dap]K-NH2; staple 2-6, 16-20), in series [1], the “Minimum Inhibitory Concentration (MIC) E. coli” value came out at 2 µg/mL. Moreover, the “Minimum Inhibitory Concentration (MIC) A. baumannii” value in series [2] stood at 2 µg/mL. Moreover, the “Minimum Inhibitory Concentration (MIC) P. aeruginosa” value in series [3] stood at 4 µg/mL. The “Minimum Inhibitory Concentration (MIC) K. pneumoniae” value in series [4] was found to be 4 µg/mL. The “Minimum Inhibitory Concentration (MIC) S. aureus” value in series [5] was greater than 64 µg/mL.
Consider `CC(C)[C@@H]1NC(=O)[C@@](C)(NC(=O)[C@H](C)NC(=O)[C@H](CCCCN)NC(=O)CNC(=O)[C@H](Cc2ccccc2)NC(=O)[C@H](CCCCN)NC(=O)[C@H](CCCCN)NC(=O)[C@H](CCCCN)NC(=O)[C@H](CCCCN)NC(=O)[C@H](CCCCN)NC(=O)[C@]2(C)CCCC=CCCC[C@](C)(NC(=O)CN)C(=O)NCC(=O)N[C@@H](CCCCN)C(=O)N[C@@H](Cc3ccccc3)C(=O)N2)CCCC=CCCC[C@@](C)(C(=O)N[C@@H](C)C(=O)N[C@@H](CCCCN)C(=O)N[C@@H](CN)C(N)=O)NC(=O)[C@H](CCC(=O)O)NC(=O)CNC1=O` [compound 52] (H-G[S5]GKF[S5]KKKKKFGKA[S5]VGE[S5]AK[Dap]-NH2; staple 2-6, 16-20), for which the “Minimum Inhibitory Concentration (MIC) E. coli” value in series [1] was found to be 2 µg/mL. Further, the “Minimum Inhibitory Concentration (MIC) A. baumannii” value in series [2] turned out to be 2 µg/mL. In addition, in series [3], the “Minimum Inhibitory Concentration (MIC) P. aeruginosa” value is 4 µg/mL. The “Minimum Inhibitory Concentration (MIC) K. pneumoniae” value in series [4] came to 8 µg/mL. Besides, the “Minimum Inhibitory Concentration (MIC) S. aureus” value in series [5] is greater than 64 µg/mL.
